# Laboratory results: patent publication US12102648B2, “Orally-bioavailable nucleoside analogs” (priority 2021, dated 2024)
# Where two headings read alike, the source gives them in different places.
# Test: in vitro
# Format: in vitro ADME
# Details: human
# Summary of the method: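 Caco-2 monolayers cultured 19 days on inserts (TEER >600 […]); bidirectional A-to-B and B-to-A transport at 37° C over 90 min, samples quantified by LC/MS/MS. Papp, efflux ratio and recovery calculated; ER >2 flags potential efflux substrates.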
# [1] = Caco-2 monolayer, apical to basolateral, 90-minute incubation, read-out: Papp, A-B
# [2] = Caco-2 monolayer, basolateral to apical, 90-minute incubation, read-out: Papp, B-A
# [3] = Caco-2 monolayer, ER>2 indicates potential efflux transporter substrate, read-out: ER (efflux ratio)
Compound,Papp A→B at 90 min (Caco-2) [×10⁻⁶ cm/s],Papp B→A at 90 min (Caco-2) [×10⁻⁶ cm/s],efflux ratio at 90 min (Caco-2),Papp A→B at 90 min [1] [×10⁻⁶ cm/s],Papp B→A at 90 min [2] [×10⁻⁶ cm/s],efflux ratio at 90 min [3]
"CCC(=O)O[C@H]1[C@@H](O)[C@](C#N)(c2ccc3c(N)ncnn23)O[C@@H]1COC(=O)CC1CCCCC1 [Compound 31, (2R,3S,4R,5R)-5-(4-aminopyrrolo[2,1-f][1,2,4]triazin-7-yl)-5-cyano-2-((2-cyclohexylacetoxy)methyl)-4-hydroxytetrahydrofuran-3-yl propionate]",5.6,5.6,1,,,
"N#C[C@@]1(c2ccc3c(N)ncnn23)O[C@H](COC(=O)CC23CC4CC(CC(C4)C2)C3)[C@@H](O)[C@H]1O [Compound 263, ((2R,3S,4R,5R)-5-(4-aminopyrrolo[2,1-f][1,2,4]triazin-7-yl)-5-cyano-3,4-dihydroxytetrahydrofuran-2-yl)methyl 2-((3R,5R,7R)-adamantan-1-yl)acetate]",13,19,1.5,,,
"CC(=O)OC[C@H]1O[C@@](C#N)(c2ccc3c(N)ncnn23)[C@H](O)[C@@H]1OC(=O)CC1CCCCC1 [Compound 50, (2R,3S,4R,5R)-2-(acetoxymethyl)-5-(4-aminopyrrolo[2,1-f][1,2,4]triazin-7-yl)-5-cyano-4-hydroxytetrahydrofuran-3-yl 2-cyclohexylacetate]",1.9,0.76,0.39,,,
"CC(C)[C@H](N)C(=O)OC[C@H]1O[C@@](C#N)(c2ccc3c(N)ncnn23)[C@H](O)[C@@H]1O [Compound 11, ((2R,3S,4R,5R)-5-(4-aminopyrrolo[2,1-f][1,2,4]triazin-7-yl)-5-cyano-3,4-dihydroxytetrahydrofuran-2-yl)methyl L-valinate]",0.4,0.1,0.4,,,
"CCC(=O)OC[C@H]1O[C@@](C#N)(c2ccc3c(N)ncnn23)[C@H](O)[C@@H]1OC(=O)Cc1ccccc1 [Compound 68, ((2R,3S,4R,5R)-5-(4-aminopyrrolo[2,1-f][1,2,4]triazin-7-yl)-5-cyano-4-hydroxy-3-(2-phenylacetoxy)tetrahydrofuran-2-yl)methyl propionate]",,,,3.3,9.3,2.8
"N#C[C@@]1(c2ccc3c(N)ncnn23)O[C@H](COC(=O)CC2CCC(C(F)(F)F)CC2)[C@@H](O)[C@H]1O (stereo partly drawn) [Compound 270, ((2R,3S,4R,5R)-5-(4-aminopyrrolo[2,1-f][1,2,4]triazin-7-yl)-5-cyano-3,4-dihydroxytetrahydrofuran-2-yl)methyl 2-(4-(trifluoromethyl)cyclohexyl)acetate]",1.9,6.9,3.7,,,
CC(C)CC(=O)OC[C@H]1O[C@@](C#N)(c2ccc3c(NC(=O)c4ccccc4)ncnn23)[C@H](O)[C@@H]1O [Compound 109],1.4,1.3,0.9,,,
"CCC(=O)OC[C@H]1O[C@@](C#N)(c2ccc3c(N)ncnn23)[C@H](O)[C@@H]1OC(=O)CC1CCCCC1 [Compound 66, [(2R,3S,4R,5R)-5-{4-aminopyrrolo[2,1-f][1,2,4]triazin-7-yl}-5-cyano-3-[(2-cyclohexylacetyl)oxy]-4-hydroxyoxolan-2-yl]methyl propanoate]",2.7,0.36,0.13,,,
"CNc1nc(N)nc2c1ncn2[C@@H]1O[C@H](COC(=O)CC2CCCCC2)[C@@H](OC(=O)C(C)C)[C@@]1(C)F [Compound 223, (2R,3R,4R,5R)-5-[2-amino-6-(methylamino)purin-9-yl]-2-{[(2-cyclohexylacetyl)oxy]methyl}-4-fluoro-4-methyloxolan-3-yl 2-methylpropanoate]",20,6.9,0.34,,,
"CNc1nc(N)nc2c1ncn2[C@@H]1O[C@H](COC(C)=O)[C@@H](OC(=O)CC(C)C)[C@@]1(C)F [Compound 186, (2R,3R,4R,5R)-2-(acetoxymethyl)-5-(2-amino-6-(methylamino)-9H-purin-9-yl)-4-fluoro-4-methyltetrahydrofuran-3-yl 3-methylbutanoate]",19,7.2,0.38,,,
"CCCCC(=O)Nc1ncnn2c([C@]3(C#N)O[C@H](COC(=O)CC)[C@@H](O)[C@H]3O)ccc12 [Compound 282, ((2R,3S,4R,5R)-5-cyano-3,4-dihydroxy-5-(4-pentanamidopyrrolo[2,1-f][1,2,4]triazin-7-yl)tetrahydrofuran-2-yl)methyl propionate]",,,,0.72,4.1,5.6
"CC(C)[C@H](N)C(=O)O[C@H]1[C@@H](O)[C@](C#N)(c2ccc3c(N)ncnn23)O[C@@H]1COC(=O)Cc1ccccc1 [Compound 43, (2R,3S,4R,5R)-5-{4-aminopyrrolo[2,1-f][1,2,4]triazin-7-yl}-5-cyano-4-hydroxy-2-{[(2-phenylacetyl)oxy]methyl}oxolan-3-yl (2S)-2-amino-3-methylbutanoate]",,,,0.74,0.22,0.3
"CC(C)C(=O)OC[C@H]1O[C@@](C#N)(c2ccc3c(N)ncnn23)[C@H](O)[C@@H]1OCOC(=O)C(C)(C)C [Compound 64, (((2R,3S,4R,5R)-5-(4-aminopyrrolo[2,1-f][1,2,4]triazin-7-yl)-5-cyano-4-hydroxy-2-((isobutyryloxy)methyl)tetrahydrofuran-3-yl)oxy)methyl pivalate]",5.9,7.1,1.2,,,
"CC(C)[C@H](N)C(=O)OC[C@H]1O[C@@](C#N)(c2ccc3c(N)ncnn23)[C@H](O)[C@@H]1OC(=O)Cc1ccccc1 [Compound 36, ((2R,3S,4R,5R)-5-(4-aminopyrrolo[2,1-f][1,2,4]triazin-7-yl)-5-cyano-4-hydroxy-3-(2-phenylacetoxy)tetrahydrofuran-2-yl)methyl L-valinate]",,,,1.1,10.3,9.8
"CCC(=O)Nc1nc(NC)c2ncn([C@@H]3O[C@H](COC(C)=O)[C@@H](O)[C@@]3(C)F)c2n1 [Compound 330, ((2R,3R,4R,5R)-4-fluoro-3-hydroxy-4-methyl-5-(6-(methylamino)-2-propionamido-9H-purin-9-yl)tetrahydrofuran-2-yl)methyl acetate]",0.54,7,13,,,
"CC(C)(C)[C@H](N)C(=O)O[C@H]1[C@@H](O)[C@](C#N)(c2ccc3c(N)ncnn23)O[C@@H]1COC(=O)CC1CCCCC1 [Compound 397, (2R,3S,4R,5R)-5-(4-aminopyrrolo[2,1-f][1,2,4]triazin-7-yl)-5-cyano-2-((2-cyclohexylacetoxy)methyl)-4-hydroxytetrahydrofuran-3-yl (S)-2-amino-3,3-dimethylbutanoate]",2.8,7.3,2.6,,,
"CC(C)C(=O)OC[C@H]1O[C@@](C#N)(c2ccc3c(N)ncnn23)[C@H](O)[C@@H]1OC(=O)Cc1ccccc1 [Compound 60, ((2R,3S,4R,5R)-5-(4-aminopyrrolo[2,1-f][1,2,4]triazin-7-yl)-5-cyano-4-hydroxy-3-(2-phenylacetoxy)tetrahydrofuran-2-yl)methyl isobutyrate]",,,,2.8,1.7,0.58
"CC(C)[C@H](N)C(=O)O[C@H]1[C@@H](O)[C@](C#N)(c2ccc3c(NC(=O)c4ccccc4)ncnn23)O[C@@H]1CO [Compound 128, (2R,3S,4R,5R)-5-(4-benzamidopyrrolo[2,1-f][1,2,4]triazin-7-yl)-5-cyano-4-hydroxy-2-(hydroxymethyl)tetrahydrofuran-3-yl L-valinate]",0.3,6.4,22,,,
"CN(C(=O)CC1CCCCC1)c1nc(N)nc2c1ncn2[C@@H]1O[C@H](COC(=O)CC2CCCCC2)[C@@H](O)[C@@]1(C)F [Compound 291, ((2R,3R,4R,5R)-5-(2-amino-6-(2-cyclohexyl-N-methylacetamido)-9H-purin-9-yl)-4-fluoro-3-hydroxy-4-methyltetrahydrofuran-2-yl)methyl 2-cyclohexylacetate]",11,17,1.6,,,
"COC1(CC(=O)OC[C@H]2O[C@@](C#N)(c3ccc4c(N)ncnn34)[C@H](O)[C@@H]2O)CCCCC1 [Compound 287, ((2R,3S,4R,5R)-5-(4-aminopyrrolo[2,1-f][1,2,4]triazin-7-yl)-5-cyano-3,4-dihydroxytetrahydrofuran-2-yl)methyl 2-(1-methoxycyclohexyl)acetate]",5.2,13,2.4,,,
"CNc1nc(N)nc2c1ncn2[C@@H]1O[C@H](COC(=O)C(C)C)[C@@H](OC(=O)CC(C)C)[C@@]1(C)F [Compound 187, (2R,3R,4R,5R)-5-(2-amino-6-(methylamino)-9H-purin-9-yl)-4-fluoro-2-((isobutyryloxy)methyl)-4-methyltetrahydrofuran-3-yl 3-methylbutanoate]",11,2.4,0.22,,,
"CC(=O)OC[C@H]1O[C@@](C#N)(c2ccc3c(NC(=O)c4ccccc4)ncnn23)[C@H](O)[C@@H]1O [Compound 103, ((2R,3S,4R,5R)-5-(4-benzamidopyrrolo[2,1-f][1,2,4]triazin-7-yl)-5-cyano-3,4-dihydroxytetrahydrofuran-2-yl)methyl acetate]",1.5,12,8,,,
"CC(C)[C@H](N)C(=O)O[C@H]1[C@@H](OC(=O)[C@@H](N)C(C)C)[C@](C#N)(c2ccc3c(N)ncnn23)O[C@@H]1COC(=O)CC1CCCCC1 [Compound 356, (2R,3R,4R,5R)-2-(4-aminopyrrolo[2,1-f][1,2,4]triazin-7-yl)-2-cyano-5-((2-cyclohexylacetoxy)methyl)tetrahydrofuran-3,4-diyl (2S,2'S)-bis(2-amino-3-methylbutanoate)]",0.6,3.6,6,,,
